Patent publication US10206908B2, “3-(1H-pyrrolo[3,2-C]pyridin-2-YL)-1H-pyrazolo[3,4-C]pyridines and therapeutic uses thereof” (Samumed, LLC, priority 2015, dated 2019)

Tests used:
Format in all cases: cell-based
[1] = tested on: Wnt activity (Sp5-Luc reporter, SW480 colon carcinoma cells); test: Screening assay for Wnt activity: Sp5-Luc reporter gene assay in SW480 colon carcinoma cells; conditions: Homo sapiens; for EC50: Sp5-Luc reporter, SW480 cells, overnight incubation
Source text: The screening assay for Wnt activity is described as follows. Reporter cell lines can be generated by stably transducing cancer cell lines (e.g., colon cancer) or primary cells (e.g., IEC-6 intestinal cells) with a lentiviral construct that includes a Wnt-responsive promoter driving expression of the firefly luciferase gene.
SW480 colon carcinoma cells were transduced with a lentiviral vector expressing luciferase with a human Sp5 promoter consisting of a sequence of eight TCF/LEF binding sites. SW480 cells stably expressing the Sp5-Luc reporter gene and a hygromycin resistance gene were selected by treatment with 150 μg/mL of hygromycin for 7 days. These stably transduced SW480 cells were expanded in cell culture and used for all further screening activities. […] For Sp5-Luc reporter gene assays, the cells were plated at 4,000 cells/well in 384-well plates with medium containing 1% fetal bovine serum and incubated overnight at 37° C. and 5% CO2. Following incubation, 20 μl of BrightGlo luminescence reagent (Promega) was added to each well of the 384-well assay plates. The plates were placed on an orbital shaker for 2 min and then luminescence was quantified using the Envision (Perkin Elmer) plate reader. Readings were normalized to DMSO only treated cells, and normalized activities were utilized for EC50 calculations using the dose-response log (inhibitor) vs. response-variable slope (four parameters) nonlinear regression feature available in GraphPad Prism 5.0 (or Dotmatics).

SW480 colon cancer cells = test: Cell viability assay (CellTiter-Blue) in SW480 colon cancer cells; conditions: Homo sapiens; for EC50: 96 h, SW480 cell viability, four days; for inhibition at 10 µM: SW480, read-out: percent inhibition at 10 μM
Description: Representative compounds were screened using the following assay procedure to assess the effect on cell viability as described below.
Approximately 2×10^3 SW480 colon cancer cells were seeded into each well and allowed to incubate in the presence or absence of compound for four days at 37° C./5% CO2. Eight replicates of DMSO-treated cells served as controls and cells treated with compound were performed in duplicate.
After incubation, 20 μL of CellTiter-Blue (Promega) was added to each well allowed to incubate for approximately 3 hours. This reagent was a buffered solution which contains resazurin, metabolically active cells were able to reduce rezarurin (blue) into resorufin (pink) which was highly fluorescent. This measured fluorescence was used as a readout for cell viability.

[2] = tested on: primary human fibroblasts derived from IPF patients (LL29 cells) treated with TGF-β1; test: Inhibition of the fibrotic process: αSMA staining in TGF-β1 treated LL29 fibroblasts; conditions: Fibroblast, 96 h, % αSMA positive LL29 cells, TGF-β1 20 ng/mL, 4 days
Description: Representative compounds were screened using primary human fibroblasts (derived from IPF patients) treated with TGF-β1 to determine their ability to inhibit the fibrotic process.
LL29 cells are plated at 1,500 cells/well in 80 μL/well F12 medium supplemented with 1% Fetal Bovine Serum. […] Wells treated with TGF-β1 and containing DMSO were used as controls. […] Following incubation for 4 days, SYTOX green nucleic acid stain (Life Technologies [Thermo Fisher Scientific]) was added to the wells at a final concentration of 1 μM and incubated at room temperature for 30 min.

[3] = tested on: primary human mesenchymal stem cells (hMSCs); test: Induction of chondrogenesis in hMSCs (chondrogenic nodules, Rhodamine B/Nile Red); conditions: 6 days; for EC50: concentration required to induce 50% levels of chondrogenesis vs TGF-β3, read-out: Conc (nM) of 50% TGF-β3 activity; for Emax: relative to TGF-β3 (10 ng/mL) positive control, read-out: Max. Activity as % TGF-β3 activity
Source text: Representative compounds were screened using primary human mesenchymal stem cells (hMSCs) to determine their ability to induce chondrogenesis (process by which cartilage is developed).
Human Mesenchymal Stem Cell Culture: Primary human mesenchymal stem cells (hMSCs) were purchased from Lonza (Walkersville, Md.) and expanded in Mesenchymal Stem Cell Growth Media (Lonza). Cells between passage 3 and 6 were used for the experiments.
Number of nodules in each well was normalized to the average of 3 DMSO treated wells on the same plate using Excel (Microsoft Inc.). The normalized averages (fold change over DMSO) of 3 replicate wells for each compound concentration were calculated. Due to solubility limitations of some of the compounds, curve fitting was incomplete leading to inaccurate EC50 determinations.
Using TGF-β3 as a positive control, the concentration of representative compounds required to induce 50% levels of chondrogenesis is reported. In addition, the maximum activity of each compound and the respective dose that each compound reached maximum chondrogenesis activity is reported.

IL-6 (THP-1 cells) = test: IL-6 inhibition in LPS-stimulated THP-1 monocytes (HTRF); conditions: Homo sapiens; for EC50: IL-6, THP-1 cells, LPS 500 ng/mL, 22 hours; for inhibition at 10 µM: THP-1, read-out: percent inhibition at 10 μM
Description: Compound Screening: THP-1 cells were cultured in basal media with 1% FBS for 24 hours before the start of the assay. […] THP-1 cells were plated at 5000 cells/well in the 384-well plates and incubated at 37° C. for 2 h. 500 ng/mL of LPS was added after 2 hours and cells were incubated for another 22 hours at 37° C. Plates were spun in a centrifuge for 1 minute at […] and a mixture of anti-IL6 XL665, and anti-IL6 Cryptate diluted in reconstitution buffer (Cisbio Inc.) was added to each well. Following incubation for 3 hrs at room temperature, Homogeneous Time-Resolved Fluorescence (HTRF) was measured using the Envision (Perkin Elmer) at 665 nm and […]. The ratio of fluorescence at 665 nm to 620 nm was used as a readout for IL6 quantification. All samples were processed in duplicate. Readings were normalized to DMSO treated cells and normalized activities were utilized for EC50 calculations using the dose-response log (inhibitor) vs. response-variable slope (four parameters) nonlinear regression feature available in GraphPad Prism 5.0 (or Dotmatics).

| EC50 [1] [nM] | EC50 (SW480 colon cancer cells) [nM] | EC50 [3] [nM] | EC50 (IL-6 (THP-1 cells)) [nM] | SMILES | EC50 [2] [nM] | Emax [3] [%] | inhibition at 10 µM (SW480 colon cancer cells) [%] | inhibition at 10 µM ([1]; SW480, read-out: percent inhibition at 10 μM) [%] | inhibition at 10 µM (IL-6 (THP-1 cells)) [%] |
| --- | --- | --- | --- | --- | --- | --- | --- | --- | --- |
| 1030 | 1280 | 30 | 1090 | CC(C)(C)CC(=O)Nc1cncc(-c2cc3c(-c4cc5c(-c6ccccc6F)nccc5[nH]4)n[nH]c3cn2)c1 [Compound 72, N-(5-(3-(4-(2-fluorophenyl)-1H-pyrrolo[3,2-c]pyridin-2-yl)-1H-pyrazolo[3,4-c]pyridin-5-yl)pyridin-3-yl)-3,3-dimethylbutanamide] | 932 | 54 | – | – | – |
| 500 | 867 | 300 | 649 | Fc1cccc(-c2nccc3[nH]c(-c4n[nH]c5cnc(-c6cccnc6)cc45)cc23)c1 [Compound 4, 3-(4-(3-Fluorophenyl)-1H-pyrrolo[3,2-c]pyridin-2-yl)-5-(pyridin-3-yl)-1H-pyrazolo[3,4-c]pyridine] | 20 | 114 | – | – | – |
| 1880 | > 10000 | 10 | 388 | CN1CCN(c2nccc3[nH]c(-c4n[nH]c5cnc(-c6cncc(NC(=O)C(C)(C)C)c6)cc45)cc23)CC1 [Compound 232, N-(5-(3-(4-(4-Methylpiperazin-1-yl)-1H-pyrrolo[3,2-c]pyridin-2-yl)-1H-pyrazolo[3,4-c]pyridin-5-yl)pyridin-3-yl)pivalamide] | 756 | 88 | 62.2 | – | – |
| > 10000 | > 10000 | – | > 10000 | CN1CCN(c2nccc3[nH]c(-c4n[nH]c5cnc(-c6cncc(N)c6)cc45)cc23)CC1 [Compound 227, 5-(3-(4-(4-Methylpiperazin-1-yl)-1H-pyrrolo[3,2-c]pyridin-2-yl)-1H-pyrazolo[3,4-c]pyridin-5-yl)pyridin-3-amine] | 5410 | 50 | 20.5 | 46.2 | 39.5 |
| 291 | 1100 | 10 | 468 | Fc1ccc(-c2nccc3[nH]c(-c4n[nH]c5cnc(-c6cncc(CN7CCC(F)(F)C7)c6)cc45)cc23)cc1 [Compound 54, 5-(5-((3,3-Difluoropyrrolidin-1-yl)methyl)pyridin-3-yl)-3-(4-(4-fluorophenyl)-1H-pyrrolo[3,2-c]pyridin-2-yl)-1H-pyrazolo[3,4-c]pyridine] | 28 | 61 | – | – | – |
| 133 | 628 | 30 | 362 | c1cncc(-c2cc3c(-c4cc5cnccc5[nH]4)n[nH]c3cn2)c1 [Compound 256, 5-(Pyridin-3-yl)-3-(1H-pyrrolo[3,2-c]pyridin-2-yl)-1H-pyrazolo[3,4-c]pyridine] | 25 | 62 | – | – | – |
| 580 | > 10000 | 10 | > 10000 | O=C(Nc1cncc(-c2cc3c(-c4cc5cnccc5[nH]4)n[nH]c3cn2)c1)c1ccccc1 [Compound 263, N-(5-(3-(1H-Pyrrolo[3,2-c]pyridin-2-yl)-1H-pyrazolo[3,4-c]pyridin-5-yl)pyridin-3-yl)benzamide] | 97 | 152 | 8.5 | – | 10.3 |
| 1890 | 5040 | 10 | 3460 | CC(C)(C)CC(=O)Nc1cncc(-c2cc3c(-c4cc5cnccc5[nH]4)n[nH]c3cn2)c1 [Compound 268, N-(5-(3-(1H-Pyrrolo[3,2-c]pyridin-2-yl)-1H-pyrazolo[3,4-c]pyridin-5-yl)pyridin-3-yl)-3,3-dimethylbutanamide] | 4010 | 59 | – | – | – |
| 3650 | 2400 | 10 | > 10000 | c1csc(-c2nccc3[nH]c(-c4n[nH]c5cnc(-c6cncc(CN7CCCCC7)c6)cc45)cc23)c1 [Compound 351, 5-(5-(Piperidin-1-ylmethyl)pyridin-3-yl)-3-(4-(thiophen-2-yl)-1H-pyrrolo[3,2-c]pyridin-2-yl)-1H-pyrazolo[3,4-c]pyridine] | 1990 | 59 | – | – | 0 |
| 1010 | 6350 | 10 | 3190 | Oc1cncc(-c2cc3c(-c4cc5c(-c6cccs6)nccc5[nH]4)n[nH]c3cn2)c1 [Compound 709, 5-(3-(4-(Thiophen-2-yl)-1H-pyrrolo[3,2-c]pyridin-2-yl)-1H-pyrazolo[3,4-c]pyridin-5-yl)pyridin-3-ol] | 340 | 83 | – | – | – |
| 1540 | > 10000 | 30 | > 10000 | O=C(Nc1cncc(-c2cc3c(-c4cc5cnccc5[nH]4)n[nH]c3cn2)c1)C1CC1 [Compound 272, N-(5-(3-(1H-Pyrrolo[3,2-c]pyridin-2-yl)-1H-pyrazolo[3,4-c]pyridin-5-yl)pyridin-3-yl)cyclopropanecarboxamide] | 1900 | 58 | 18.6 | – | 9.6 |
| 1250 | 4280 | – | 2800 | O=C(Nc1cncc(-c2cc3c(-c4cc5c(-c6ccccc6F)nccc5[nH]4)n[nH]c3cn2)c1)C1CCC1 [Compound 77, N-(5-(3-(4-(2-Fluorophenyl)-1H-pyrrolo[3,2-c]pyridin-2-yl)-1H-pyrazolo[3,4-c]pyridin-5-yl)pyridin-3-yl)cyclobutanecarboxamide] | 2820 | 44 | – | – | – |
| 1100 | 2370 | 10 | 323 | CN1CCN(c2nccc3[nH]c(-c4n[nH]c5cnc(-c6cncc(CN7CCC(F)(F)C7)c6)cc45)cc23)CC1 [Compound 250, 5-(5-((3,3-Difluoropyrrolidin-1-yl)methyl)pyridin-3-yl)-3-(4-(4-methylpiperazin-1-yl)-1H-pyrrolo[3,2-c]pyridin-2-yl)-1H-pyrazolo[3,4-c]pyridine] | 641 | 76 | – | – | – |
| 1490 | 611 | 300 | > 10000 | CN(C)c1cncc(-c2cc3c(-c4cc5c(-c6cccs6)nccc5[nH]4)n[nH]c3cn2)c1 [Compound 343, N,N-Dimethyl-5-(3-(4-(thiophen-2-yl)-1H-pyrrolo[3,2-c]pyridin-2-yl)-1H-pyrazolo[3,4-c]pyridin-5-yl)pyridin-3-amine] | 694 | 51 | – | – | 0 |
